From patent US10005721B2, “Dimethylbenzoic acid compounds” (Eli Lilly and Company, priority 2013, dated 2018)

Legend:
[1] = target: T1, human EP1 (Homo sapiens, UniProt P34995); assay: In vitro binding to human EP1 ([3H]-PGE2 displacement, membranes); settings: HEK293 membranes, geometric mean ± SD, read-out: hEP1, Ki
T1 construct: expressed in transfected cells
T1 sequence (P34995 1-402): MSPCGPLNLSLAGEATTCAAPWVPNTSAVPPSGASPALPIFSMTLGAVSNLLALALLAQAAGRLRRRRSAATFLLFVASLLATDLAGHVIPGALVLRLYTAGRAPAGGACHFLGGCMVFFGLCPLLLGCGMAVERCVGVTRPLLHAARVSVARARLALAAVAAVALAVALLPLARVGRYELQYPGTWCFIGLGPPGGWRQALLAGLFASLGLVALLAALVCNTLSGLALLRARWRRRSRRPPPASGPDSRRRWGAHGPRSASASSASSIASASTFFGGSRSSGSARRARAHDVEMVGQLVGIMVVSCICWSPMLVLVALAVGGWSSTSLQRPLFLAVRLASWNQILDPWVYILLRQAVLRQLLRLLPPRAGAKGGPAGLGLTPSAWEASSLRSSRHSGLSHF
Description: (§1) hEP1 and hEP4 membranes are prepared from recombinant HEK293 cells stably expressing human EP1 (Genbank accession number AY275470) or EP4 (Genbank accession number AY429109) receptors. hEP2 and hEP3 membranes are prepared from HEK293 cells transiently transfected with EP2 (Genbank accession number AY275471) or EP3 (isoform VI: Genbank accession number AY429108) receptor plasmids. Frozen cell pellets are homogenized in homogenization buffer using a Teflon/glass homogenizer. Membrane protein is aliquoted and quick frozen on dry ice prior to storage at −80° C. Homogenization buffer contained 10 mM Tris-HCl, pH 7.4, 250 mM sucrose, 1 mM EDTA, 0.3 mM indomethacin and plus Complete™, with EDTA, obtained from Roche Molecular Biochemicals (Catalog Number 1 697 498).
(§2) Kd values for [^3H]-PGE2 binding to each receptor are determined by saturation binding studies or homologous competition. […] Non-specific binding is calculated by comparing binding in the presence and absence of 2 μM of PGE2. The membranes are harvested by filtration (TomTek harvester), washed 4 times with cold buffer (10 mM MES pH 6.0 with KOH, 10 mM MgCl2), dried in a 60° C. oven, and the radioactivity is quantified as counts per minute (CPM) using a TopCount detector. Percent specific binding is calculated as the percent of the binding in the absence of any inhibitor, corrected for binding in the presence of 2 uM of PGE2. […]

[2] = target: T2, human EP2 (Homo sapiens, UniProt P43116); assay: In vitro binding to human EP2 ([3H]-PGE2 displacement, membranes); settings: HEK293 membranes, geometric mean ± SD, read-out: hEP2, Ki
T2 construct: expressed in transfected cells; host or cells: HEK293 (transient)
T2 sequence (P43116 whole entry): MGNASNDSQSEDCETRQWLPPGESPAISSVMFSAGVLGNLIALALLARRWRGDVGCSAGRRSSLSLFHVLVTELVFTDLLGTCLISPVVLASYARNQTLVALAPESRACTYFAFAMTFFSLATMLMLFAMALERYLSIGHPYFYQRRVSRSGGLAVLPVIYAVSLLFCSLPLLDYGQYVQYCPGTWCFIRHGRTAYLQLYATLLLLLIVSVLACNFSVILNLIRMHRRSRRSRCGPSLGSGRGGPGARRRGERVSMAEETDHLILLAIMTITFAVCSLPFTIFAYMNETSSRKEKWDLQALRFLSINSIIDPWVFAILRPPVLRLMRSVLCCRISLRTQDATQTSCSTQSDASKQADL
Description: as §1, §2

[3] = target: T3, human EP3 (isoform VI) (Homo sapiens, UniProt P43115); assay: In vitro binding to human EP3 ([3H]-PGE2 displacement, membranes); settings: HEK293 membranes, geometric mean ± SD, read-out: hEP3, Ki
T3 construct: expressed in transfected cells; host or cells: HEK293 (transient)
T3 sequence (P43115 1-374 isoform P43115-4): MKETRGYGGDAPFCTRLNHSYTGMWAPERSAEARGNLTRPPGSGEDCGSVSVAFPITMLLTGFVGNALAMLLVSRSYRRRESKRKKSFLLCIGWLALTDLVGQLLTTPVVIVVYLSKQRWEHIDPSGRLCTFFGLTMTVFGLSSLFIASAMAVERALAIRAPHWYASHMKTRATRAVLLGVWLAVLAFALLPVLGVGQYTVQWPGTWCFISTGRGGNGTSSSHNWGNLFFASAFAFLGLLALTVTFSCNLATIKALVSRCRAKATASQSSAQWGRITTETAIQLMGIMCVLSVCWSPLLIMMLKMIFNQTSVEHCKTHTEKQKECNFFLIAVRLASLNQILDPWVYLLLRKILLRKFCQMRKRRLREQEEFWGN
Description: as §1, §2

[4] = target: T4, human EP4 (Homo sapiens, UniProt P35408); assay: In vitro binding to human EP4 ([3H]-PGE2 displacement, membranes); settings: HEK293 membranes, geometric mean ± SD, read-out: hEP4, Ki
T4 construct: expressed in transfected cells
T4 sequence (P35408 whole entry): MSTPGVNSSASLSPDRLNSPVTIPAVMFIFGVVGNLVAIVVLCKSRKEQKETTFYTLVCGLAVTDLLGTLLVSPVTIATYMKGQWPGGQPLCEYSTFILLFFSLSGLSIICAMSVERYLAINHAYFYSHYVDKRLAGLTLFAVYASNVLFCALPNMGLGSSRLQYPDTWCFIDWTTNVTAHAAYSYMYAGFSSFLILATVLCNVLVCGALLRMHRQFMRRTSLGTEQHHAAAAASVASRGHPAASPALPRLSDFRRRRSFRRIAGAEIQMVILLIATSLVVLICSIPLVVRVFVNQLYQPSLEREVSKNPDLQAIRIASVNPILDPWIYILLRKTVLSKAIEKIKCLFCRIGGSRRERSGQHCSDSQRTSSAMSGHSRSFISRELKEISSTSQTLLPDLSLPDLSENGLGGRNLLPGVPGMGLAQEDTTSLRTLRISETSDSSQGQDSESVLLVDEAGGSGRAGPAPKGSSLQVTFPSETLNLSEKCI
Description: as §1, §2

[5] = target: T4, human EP4; assay: In vitro human EP4 functional antagonist activity (PGE2-stimulated cAMP, HTRF, HEK293); type: cell-based; settings: HEK293 cells expressing human EP4, EC80 of PGE2; geometric mean ± SD; read-out: IC50, inhibition of PGE2-stimulated cAMP production, human EP4
Description: Assays are conducted in recombinant HEK293 cells stably expressing human EP4 receptor. The cell lines are maintained by culturing in DMEM with high glucose and pyridoxine hydrochloride (Invitrogen) supplemented with 10% fetal bovine serum (FBS), 1 mM sodium pyruvate, 10 mM HEPES, […] and 2 mM L-glutamine. Confluent cultures are grown at 37° C. in an atmosphere containing 5% CO2. Cells are harvested using 2.5% Trypsin-EDTA, suspended in freeze media (FBS with 6% DMSO) at 10^7 cells/mL and aliquots are stored in liquid nitrogen. Just before assay, cells are thawed in DMEM, centrifuged, and resuspended in cAMP buffer.
The inhibition of PGE2-stimulated cAMP production by EP4 antagonists is measured using HTRF; (Cisbio catalog #62AM4PEB). […] The HTRF signal is detected using an EnVision® plate reader (Perkin-Elmer) to calculate the ratio of fluorescence at 665 nm to 620 nm. […] Results are expressed as the geometric mean±standard deviation; n=number of independent determinations. The standard deviation is calculated by the delta method, being Slog IC50×geometric mean×ln(10).

[6] = target: T5, rat EP4 (Rattus norvegicus, UniProt P43114); assay: In vitro rat EP4 functional antagonist activity (PGE2-stimulated cAMP, HTRF, HEK293); type: cell-based; settings: HEK293 cells expressing rat EP4, PGE2 at EC80, cAMP HTRF; read-out: IC50 measured at rat EP4
T5 construct: expressed in transfected cells
T5 sequence (P43114 whole entry): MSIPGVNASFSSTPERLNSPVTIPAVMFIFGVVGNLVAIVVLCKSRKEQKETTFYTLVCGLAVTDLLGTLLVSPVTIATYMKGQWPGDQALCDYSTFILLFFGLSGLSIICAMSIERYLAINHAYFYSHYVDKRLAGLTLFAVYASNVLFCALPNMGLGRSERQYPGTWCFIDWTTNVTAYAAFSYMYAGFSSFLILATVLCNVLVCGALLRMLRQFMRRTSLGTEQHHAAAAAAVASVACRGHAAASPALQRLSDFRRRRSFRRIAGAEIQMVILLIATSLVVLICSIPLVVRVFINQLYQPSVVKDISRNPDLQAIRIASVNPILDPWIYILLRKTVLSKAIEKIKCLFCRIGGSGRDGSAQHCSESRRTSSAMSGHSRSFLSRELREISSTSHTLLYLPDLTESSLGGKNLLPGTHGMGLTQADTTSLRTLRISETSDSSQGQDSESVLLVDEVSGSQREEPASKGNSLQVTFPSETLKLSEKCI
Description: Rat EP4 cDNA (Genebank Accession# NM 03276) is cloned into pcDNA 3.1 vector and subsequently transfected in HEK293 cells for receptor expression. Rat EP4 stable clone is scaled up and then frozen down as cell bank for future compounds screening. To test EP4 antagonist compounds in rEP4 cells, thaw the frozen cells and then resuspend cells in cAMP assay buffer. The cAMP buffer is made by HBSS without Phenol Red (Hyclone, SH30268) supplemented with 20 mM HEPES (Hyclone, SH30237), 0.1% BSA (Gibco, 15260) and 125 μM IBMX (Sigma, 15879). The cells are plated into 96-well half area flat-bottom polystyrene black plates (Costar 3694). Compounds are serial diluted with DMSO to give 10-point concentration response curves. Then diluted compounds are added into cAMP assay buffer which contains PGE2 (Cayman 14010, in a concentration predetermined to produce an EC80) at ratio of DMSO/buffer at 1/100. The cells are treated with compounds in the presence of PGE2 (EC80 concentration) for 30 minutes at room temperature. The cAMP levels generated from the cells are quantified by a cAMP HTRF assay kit (Cisbio 62AM4PEC). The plates are read on an EnVision plate reader using HTRF optimized protocol (PerkinElmer). IC50's are calculated using Graphpad Prism (v. 4) nonlinear regression, sigmoidal dose response curve fitting.

[7] = tested on: LPS-induced TNFα production in human whole blood; assay: In vitro antagonist activity in human whole blood (reversal of PGE2 inhibition of LPS-induced TNFα); type: cell-based; settings: 10 μg/mL LPS, 10 nM PGE2, geometric mean ± SD, read-out: IC50, reversal of inhibitory effect of PGE2 on LPS-induced TNFα production
Source text: The inhibitory effects of PGE2 on LPS-induced TNFα production from macrophages/monocytes are believed to be mediated by EP4 receptors (See Murase, A., et al., Life Sciences, 82:226-232 (2008)). The ability of the compound of Example 1 to reverse the inhibitory effect of PGE2 on LPS-induced TNFα production in human whole blood is an indicia of functional activity.
Blood is collected from normal volunteer donors into sodium heparin vacutainer tubes. Donors have not taken NSAIDs or celecoxib within 48 hours or glucocorticoids within two weeks of the donation. All tubes/donor are pooled into 50 mL Falcon conical centrifuge tubes and 98 μL/well is distributed into 96-well tissue culture plates (Falcon 3072). […] TNFα levels in 2 μL plasma are quantified by a commercially available enzyme immunoassay (R&D Systems DY210), using Immulon 4 HBX plates (Thermo 3855) and 3,3′,5,5′ tetramethylbiphenyl-4,4′-diamine substrate (KPL 50-76-03). The plates are read at A450-A650 on a plate reader (Molecular Devices Versamax) using SOFTmaxPRO (v. 4.3.1) software. IC50s are calculated using Graphpad Prism (v. 4) nonlinear regression, sigmoidal dose response curve fitting. Results are expressed as the geometric mean±standard deviation; n=number of independent determinations. The standard deviation is calculated by the delta method, being SDlog IC50×geometric mean×ln(10).

Row | SMILES | Ki [1] | Ki [2] | Ki [3] | Ki [4] | IC50 [5] | IC50 [6] | IC50 [7]
1 | Cc1ccc(-c2cccc(CO)c2)cc1C(=O)Nc1c(C)ccc(C(=O)O)c1C [Example 1, 3-[[5-[3-(Hydroxymethyl)phenyl]-2-methyl-benzoyl]amino]-2,4-dimethyl-benzoic acid] | > 18.8 µM | 5.85 ± 1.01 µM | > 14.8 µM | 2.18 ± 1.74 nM | 2.31 ± 2.02 nM | 1.51 nM | 59.5 ± 37.8 nM
2 | Cc1ccc(-c2cccc(CO)c2)nc1C(=O)Nc1c(C)ccc(C(=O)O)c1C [Example 22, 3-[[6-[3-(Hydroxymethyl)phenyl]-3-methyl-pyridine-2-carbonyl]amino]-2,4-dimethyl-benzoic acid] | > 17.5 µM | > 18.9 µM | > 14 µM | 2.07 ± 1.31 nM |  |  | 
